Experimental data taken from patent publication US11331299B2, “Medicinal use of serrulatane diterpenes” (The University of Sydney, priority 2016, dated 2022).
Read-outs that look alike come from different tables or passages of the source.

Assays:
[1] = tested on: IL-17A secretion from human PBMC stimulated with antiCD3/antiCD28-coated beads; test: PBMC IL-17 assay (assay number 1321); assay type: cell-based
[2] = tested on: CCL2 release from IL-4, IL-13, IL-22 and IFN-γ-stimulated primary human keratinocytes; test: Keratinocyte CCL2 release (assay number 1280); assay type: cell-based
[3] = target: receptors (Bioprint panel) (Homo sapiens, UniProt Q9H3N8); test: biochemical; assay type: binding; details: HISTAMINE H4 (h) (agonist radioligand); 10 μM; read-out: % Inhibition of Control Specific Binding
Sequence of receptors (Bioprint panel) (Homo sapiens, UniProt Q9H3N8) (Q9H3N8 whole entry): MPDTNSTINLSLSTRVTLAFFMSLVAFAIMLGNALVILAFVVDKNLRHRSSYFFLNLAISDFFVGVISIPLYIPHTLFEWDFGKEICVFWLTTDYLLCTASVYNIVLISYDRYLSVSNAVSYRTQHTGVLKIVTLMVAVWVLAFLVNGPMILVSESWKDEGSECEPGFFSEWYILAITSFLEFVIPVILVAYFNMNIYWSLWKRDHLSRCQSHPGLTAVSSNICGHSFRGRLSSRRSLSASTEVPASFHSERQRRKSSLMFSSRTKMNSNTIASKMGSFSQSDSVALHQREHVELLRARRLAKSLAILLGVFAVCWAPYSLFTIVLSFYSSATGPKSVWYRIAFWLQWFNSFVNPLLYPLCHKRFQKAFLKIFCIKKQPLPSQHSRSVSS

[4] = target: receptors (Bioprint panel) (Homo sapiens, UniProt P08172); test: biochemical; assay type: binding; details: […] M2 (h) (antagonist radioligand); 10 μM; read-out: % Inhibition of Control Specific Binding
Sequence of receptors (Bioprint panel) (Homo sapiens, UniProt P08172) (P08172 whole entry): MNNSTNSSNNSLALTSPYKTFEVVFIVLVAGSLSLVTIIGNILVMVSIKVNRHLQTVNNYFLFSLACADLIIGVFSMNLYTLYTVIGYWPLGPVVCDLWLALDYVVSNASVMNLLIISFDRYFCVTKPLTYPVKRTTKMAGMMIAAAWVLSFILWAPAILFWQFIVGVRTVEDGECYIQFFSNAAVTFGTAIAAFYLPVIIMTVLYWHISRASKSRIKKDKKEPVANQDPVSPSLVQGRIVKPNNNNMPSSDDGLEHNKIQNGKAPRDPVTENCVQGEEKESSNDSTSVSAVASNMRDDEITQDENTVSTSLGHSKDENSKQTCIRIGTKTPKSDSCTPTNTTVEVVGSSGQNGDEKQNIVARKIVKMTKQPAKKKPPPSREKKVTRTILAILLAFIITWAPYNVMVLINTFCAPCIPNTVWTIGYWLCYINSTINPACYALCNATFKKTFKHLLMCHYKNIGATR

human PBMC = test: PBMC cell viability (assay number 1322); assay type: cell-based; details: Homo sapiens, PBMC; read-out: Inhibition of cell viability, Rel EC50
[5] = PBMC cell viability (assay number 1322); assay type: cell-based, human; details: human; read-out: Inhibition of cell viability, Max Effect
CCD 841 CoN = test: OncoPanel normal cell proliferation assay (3-day); assay type: cell-based; details: Homo sapiens, 72 h, colon epithelial, 3-day incubation
[6] = tested on: IL-8 release from IL-17A and TNFα-induced primary human keratinocytes; test: Keratinocyte IL-8 release (assay number 1250); assay type: cell-based
[7] = tested on: IL-4 secretion from human CD4-positive T-cells stimulated with antiCD2/antiCD3/antiCD28-coated beads; test: T-cell IL-4 assay; assay type: cell-based
[8] = tested on: primary human keratinocytes; test: Keratinocyte cell viability, CCL2 assay (assay number 1243); assay type: cell-based; details: Homo sapiens, Keratinocyte; read-out: Inhibition of cell viability, Rel EC50
[9] = as above; assay type: cell-based, human; details: human; read-out: Inhibition of cell viability, Max Effect
adrenergic alpha 2C (h) = adrenergic alpha 2C (h) (Homo sapiens, UniProt P18825); test: biochemical; assay type: binding
Sequence of adrenergic alpha 2C (h) (P18825 whole entry): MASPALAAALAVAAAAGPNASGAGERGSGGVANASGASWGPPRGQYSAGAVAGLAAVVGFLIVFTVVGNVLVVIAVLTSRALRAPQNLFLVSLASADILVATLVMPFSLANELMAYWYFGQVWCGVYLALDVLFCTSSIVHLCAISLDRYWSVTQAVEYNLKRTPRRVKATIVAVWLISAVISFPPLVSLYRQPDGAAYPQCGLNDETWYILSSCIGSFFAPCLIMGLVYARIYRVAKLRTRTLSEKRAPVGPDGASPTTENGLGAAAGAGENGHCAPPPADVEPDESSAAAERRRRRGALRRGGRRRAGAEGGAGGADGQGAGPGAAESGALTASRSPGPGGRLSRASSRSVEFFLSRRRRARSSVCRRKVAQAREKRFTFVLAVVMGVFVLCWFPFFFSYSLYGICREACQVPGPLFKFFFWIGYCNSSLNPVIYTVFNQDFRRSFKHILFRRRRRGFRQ

hSMYD2 = hSMYD2 (Homo sapiens, UniProt Q9NRG4); details: read-out: Reference: (IC50 not given); cited from earlier work
Sequence of hSMYD2 (Q9NRG4 whole entry): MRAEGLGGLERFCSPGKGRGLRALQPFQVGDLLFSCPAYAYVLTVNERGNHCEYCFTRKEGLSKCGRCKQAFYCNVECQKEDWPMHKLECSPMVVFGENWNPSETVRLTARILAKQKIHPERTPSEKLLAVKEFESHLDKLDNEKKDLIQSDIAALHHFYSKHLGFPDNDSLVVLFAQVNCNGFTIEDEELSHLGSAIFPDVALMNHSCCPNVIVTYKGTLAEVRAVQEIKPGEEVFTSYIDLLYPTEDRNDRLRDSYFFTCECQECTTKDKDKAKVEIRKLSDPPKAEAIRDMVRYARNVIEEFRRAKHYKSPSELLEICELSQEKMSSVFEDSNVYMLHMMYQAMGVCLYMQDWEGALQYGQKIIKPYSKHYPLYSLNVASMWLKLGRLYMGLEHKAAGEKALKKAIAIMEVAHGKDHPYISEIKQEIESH

SUV4-20H2 (h) = SUV4-20H2 (h) (Homo sapiens, UniProt Q86Y97); details: read-out: Reference: (IC50 not given); cited from earlier work
Sequence of SUV4-20H2 (h) (Q86Y97 whole entry): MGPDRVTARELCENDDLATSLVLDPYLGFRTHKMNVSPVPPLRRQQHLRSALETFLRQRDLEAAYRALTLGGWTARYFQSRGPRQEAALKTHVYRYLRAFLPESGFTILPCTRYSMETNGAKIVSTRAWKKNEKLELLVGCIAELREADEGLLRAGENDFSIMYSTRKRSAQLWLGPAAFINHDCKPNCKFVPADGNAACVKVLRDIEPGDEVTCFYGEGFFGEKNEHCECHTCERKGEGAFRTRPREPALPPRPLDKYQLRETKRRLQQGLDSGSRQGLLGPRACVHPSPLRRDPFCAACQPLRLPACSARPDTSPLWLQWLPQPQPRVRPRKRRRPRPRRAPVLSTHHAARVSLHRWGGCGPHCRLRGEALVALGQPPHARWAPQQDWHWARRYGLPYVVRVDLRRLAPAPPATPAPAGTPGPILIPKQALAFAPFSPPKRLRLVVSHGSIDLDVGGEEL

EHMT1 (h) = target: T1, EHMT1 (h) (Homo sapiens, UniProt Q9H9B1); details: read-out: Reference: IC50; cited from earlier work
T1 sequence (Q9H9B1 1-1298): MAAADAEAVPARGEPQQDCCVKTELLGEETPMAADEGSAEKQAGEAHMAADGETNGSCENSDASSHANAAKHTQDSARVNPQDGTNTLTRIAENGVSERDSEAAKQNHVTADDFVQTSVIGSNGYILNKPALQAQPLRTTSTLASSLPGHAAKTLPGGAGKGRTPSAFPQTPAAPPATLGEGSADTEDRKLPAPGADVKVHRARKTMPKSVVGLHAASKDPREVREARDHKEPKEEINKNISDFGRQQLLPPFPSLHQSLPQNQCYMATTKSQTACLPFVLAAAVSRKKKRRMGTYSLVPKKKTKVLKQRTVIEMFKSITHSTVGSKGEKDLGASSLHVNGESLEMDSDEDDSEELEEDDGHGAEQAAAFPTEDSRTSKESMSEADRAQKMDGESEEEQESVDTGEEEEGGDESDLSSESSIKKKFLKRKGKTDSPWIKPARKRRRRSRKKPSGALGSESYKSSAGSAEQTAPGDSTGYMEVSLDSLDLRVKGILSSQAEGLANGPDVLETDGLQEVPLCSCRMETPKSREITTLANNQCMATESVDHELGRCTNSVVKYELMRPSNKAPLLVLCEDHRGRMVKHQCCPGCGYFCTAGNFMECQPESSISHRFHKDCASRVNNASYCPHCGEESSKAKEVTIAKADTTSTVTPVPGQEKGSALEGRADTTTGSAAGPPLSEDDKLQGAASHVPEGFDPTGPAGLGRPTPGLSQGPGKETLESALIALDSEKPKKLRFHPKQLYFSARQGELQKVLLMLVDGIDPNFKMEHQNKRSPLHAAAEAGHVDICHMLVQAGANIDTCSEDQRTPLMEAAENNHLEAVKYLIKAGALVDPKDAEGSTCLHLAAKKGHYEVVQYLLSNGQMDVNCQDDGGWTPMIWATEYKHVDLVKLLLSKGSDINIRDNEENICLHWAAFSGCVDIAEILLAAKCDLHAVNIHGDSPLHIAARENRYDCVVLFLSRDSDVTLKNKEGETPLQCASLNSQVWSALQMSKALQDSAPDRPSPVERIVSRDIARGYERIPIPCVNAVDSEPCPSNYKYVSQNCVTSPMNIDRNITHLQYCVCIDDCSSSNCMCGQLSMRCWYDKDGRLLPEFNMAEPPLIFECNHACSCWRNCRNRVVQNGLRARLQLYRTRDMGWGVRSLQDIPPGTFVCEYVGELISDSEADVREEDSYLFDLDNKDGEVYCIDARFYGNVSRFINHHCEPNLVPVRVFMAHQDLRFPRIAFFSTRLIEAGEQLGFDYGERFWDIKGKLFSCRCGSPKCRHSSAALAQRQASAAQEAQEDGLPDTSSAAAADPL

DNMT3b = DNMT3b (Homo sapiens, UniProt Q9UBC3); details: read-out: Reference IC50; cited from earlier work
PRDM9 (h) = PRDM9 (h) (Homo sapiens, UniProt Q9NQV7); details: read-out: Reference: (IC50 not given); cited from earlier work
Sequence of PRDM9 (h) (Q9NQV7 whole entry): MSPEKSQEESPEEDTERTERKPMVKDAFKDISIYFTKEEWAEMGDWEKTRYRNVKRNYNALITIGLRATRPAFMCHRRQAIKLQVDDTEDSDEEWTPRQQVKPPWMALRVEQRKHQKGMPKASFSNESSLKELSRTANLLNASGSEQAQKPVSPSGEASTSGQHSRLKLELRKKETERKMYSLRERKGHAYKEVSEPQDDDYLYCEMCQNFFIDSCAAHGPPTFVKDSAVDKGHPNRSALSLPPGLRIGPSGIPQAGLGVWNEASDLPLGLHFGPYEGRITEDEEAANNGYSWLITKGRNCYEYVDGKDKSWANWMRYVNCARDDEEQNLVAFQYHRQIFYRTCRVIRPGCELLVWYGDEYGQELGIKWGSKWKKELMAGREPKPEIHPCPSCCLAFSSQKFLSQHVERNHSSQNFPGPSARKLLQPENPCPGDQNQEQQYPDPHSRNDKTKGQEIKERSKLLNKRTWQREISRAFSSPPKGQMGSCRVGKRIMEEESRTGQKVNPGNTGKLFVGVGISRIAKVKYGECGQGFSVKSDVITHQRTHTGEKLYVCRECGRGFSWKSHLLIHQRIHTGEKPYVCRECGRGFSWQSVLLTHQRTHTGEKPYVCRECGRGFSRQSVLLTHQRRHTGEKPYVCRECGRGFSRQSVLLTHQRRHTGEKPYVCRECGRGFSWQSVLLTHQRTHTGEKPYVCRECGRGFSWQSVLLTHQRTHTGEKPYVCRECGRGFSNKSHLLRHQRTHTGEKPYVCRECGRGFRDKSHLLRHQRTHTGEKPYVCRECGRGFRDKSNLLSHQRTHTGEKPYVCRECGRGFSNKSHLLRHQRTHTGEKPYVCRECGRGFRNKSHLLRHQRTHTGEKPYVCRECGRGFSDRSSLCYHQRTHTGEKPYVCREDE

MLL4(h) complex = details: read-out: Reference: (IC50 not given); cited from earlier work
PRMT3 (h) = PRMT3 (h) (Homo sapiens, UniProt O60678); details: read-out: Reference: (IC50 not given); cited from earlier work
Sequence of PRMT3 (h) (O60678 whole entry): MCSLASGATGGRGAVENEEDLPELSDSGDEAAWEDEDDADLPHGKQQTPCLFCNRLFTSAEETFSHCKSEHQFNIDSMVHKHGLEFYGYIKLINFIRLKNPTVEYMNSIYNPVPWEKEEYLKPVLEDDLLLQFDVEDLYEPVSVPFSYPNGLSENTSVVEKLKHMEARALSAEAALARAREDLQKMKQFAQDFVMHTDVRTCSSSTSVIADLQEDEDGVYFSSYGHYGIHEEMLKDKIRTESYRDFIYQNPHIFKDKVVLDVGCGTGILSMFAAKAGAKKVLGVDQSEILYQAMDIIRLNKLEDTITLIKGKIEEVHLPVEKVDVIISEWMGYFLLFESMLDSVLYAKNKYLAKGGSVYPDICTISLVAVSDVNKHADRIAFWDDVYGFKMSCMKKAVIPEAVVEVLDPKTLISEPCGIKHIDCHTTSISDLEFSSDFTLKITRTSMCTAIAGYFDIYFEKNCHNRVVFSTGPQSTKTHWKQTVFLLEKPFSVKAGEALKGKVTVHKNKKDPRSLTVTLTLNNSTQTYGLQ

CC(C)=CCC[C@H](CO)[C@@H]1CC[C@@H](C)c2c1cc(C)c(O)c2O [Compound 1, 7,8,18-trihydroxyserrulat-14-ene]
Emax ([1]; read-out: Inhibition of IL-17A release, Max Effect): 100% | EC50 ([1]; read-out: Inhibition of IL-17A release, Rel EC50): 320 nM | Emax ([2]; read-out: Inhibition of CCL2 release, Max Effect): 101% | EC50 ([2]; read-out: Inhibition of CCL2 release, Rel EC50): 92.2 nM | inhibition at 10 µM [3]: 23% | inhibition at 10 µM [4]: 1% | EC50 (human PBMC): 542 nM | cytotoxicity at 3 days [5]: 101% | EC50 (CCD 841 CoN; read-out: Cell Count EC50): 4860 nM | GI50 (CCD 841 CoN; read-out: Cell Count GI50): 5270 nM | IC50 (CCD 841 CoN; read-out: Cell Count IC50): 14300 nM | Emax ([6]; read-out: Inhibition of IL-8 release, Max Effect): 110% | EC50 ([6]; read-out: Inhibition of IL-8 release, Rel EC50): 157 nM | Emax ([7]; read-out: Inhibition of IL-4 release, Max Effect): 100% | EC50 ([7]; read-out: Inhibition of IL-4 release, Rel EC50): 523 nM | EC50 [8]: 708 nM | cytotoxicity [9]: 103% | inhibition at 10 µM (adrenergic alpha 2C (h); […] alpha 2C (h) (antagonist radioligand), read-out: % Inhibition of Control Specific Binding): 92% | inhibition at 10 µM (adrenergic alpha 2C (h); read-out: % inhibition of control specific binding): 92%

Nc1ncnc2c1ncn2[C@@H]1O[C@H](CSCC[C@H](N)C(=O)O)[C@@H](O)[C@H]1O [SAH]
IC50 (hSMYD2): 160 nM | IC50 (SUV4-20H2 (h)): 24000 nM | IC50 (EHMT1 (h)): 180 nM | IC50 (DNMT3b): 94 nM | IC50 (PRDM9 (h)): 370000 nM | IC50 (MLL4(h) complex): 970 nM | IC50 (PRMT3 (h)): 860 nM
